Patent US20120046327A1, “METHOD FOR INHIBITING THE INDUCTION AND FORMATION OF OSTEOCLASTS” (OSAKA UNIVERSITY, priority 2005, published 2012)

Tests used:
[1] = tested on: RANKL (Receptor Activator of NK-κB Ligand) in human osteoblasts; assay: sRANKL expression increased by AngII in human osteoblasts; assay type: cell-based; conditions: two-day cultivation
Experimental: Purpose: Using human osteoblasts, expression of RANKL (Receptor Activator of NK-κB Ligand) which increases with angiotensin 2 (AngII) was measured. Then, inhibitory effect of olmesartan doxomil was examined.
Methods: Human osteoblasts (Clonetics Corp., Palo Alto, Calif.) were cultured in DMEM medium under conditions of 10% FCS, 5% CO2 and 37° C. AngII (1 μM) (Sigma) was added to the culture. After two-day cultivation, sRANKL (soluble Receptor Activator of NK-κB Ligand) contained in the culture supernatant was examined by […] (Biomedica). Further, effect produced by simultaneous administration of olmesartan (1 μM) or angiotensin type II receptor antagonist PD (123319) (chemical name: (S)-1-(4-[dimethylamino]-3-methylphenyl)methyl-5-(diphenylacetyl)-4,5,6,7-tetrahydro-1H-imidazo[4,5-c]pyridine-6-carboxylate) (1 μM) (Sigma-aldrich) was also examined.

[2] = tested on: TRAP (tartarate-resistant acid phosphatase) activity in the thigh bone; assay: TRAP activity in the thigh bone of ovariectomized spontaneously hypertensive rats; assay type: in vivo, spontaneously hypertensive rats (SHR); conditions: osmotic pump, one month after ovariectomy, ovariectomy group 76.9±9.9, non-treatment 59.6±1.0
Experimental: (§1) Purpose: Using spontaneously hypertensive rats, increase in TRAP (tartarate-resistant acid phosphatase) activity in the thigh bone and decrease in the bone density after ovariectomy were measured. Then, inhibitory effects of olmesartan medoxomil against TRAP activity increase and bone density decrease were examined. TRAP is a marker enzyme for osteoclasts, and TRAP activity increases when osteoclasts are activated. When osteoclasts are activated, bone is resorbed and thus bone density is decreased.
(§2) Methods: The ovary was removed from 8-week-old female spontaneously hypertensive rats (SHR) (Charles River). After one month observation, the thigh bone was removed, followed by measurement of TRAP activity in the bone (Walter K., et al., Method of Enzymatic Analysis, Academic Press, New York & London: 1974; 856-870) and simultaneous measurement of bone density (Venken K., et al., Bone 2005; 36: 663-670). Further, from immediately after the ovariectomy, olmesartan was administered subcutaneously at two different concentrations of 0.5 mg/kg/day and 1 mg/kg/day using an osmotic pressure pump (Alzet model 2004; Alza Corp).

[3] = tested on: osteoclasts (TRAP positive multinucleated cells) in domestic rabbit bone marrow culture system; assay: Osteoclast formation induced by active vitamin D3 in domestic rabbit bone marrow culture (TRAP staining); assay type: cell-based, domestic rabbit (New Zealand White Rabbit)
Experimental: Purpose: Using a domestic rabbit bone marrow culture system, the number of osteoclasts which were differentiation-induced by active vitamin D3 was measured. Then, inhibitory effect of olmesartan medoxomil was examined.
Methods: A three-day-old domestic rabbit (New Zealand White Rabbit) was sacrificed, followed by removal of the thigh bone and the tibia. After collection of the bone marrow, the leukocyte (granulocyte-monocyte) fraction was isolated and cultured under conditions of α-MEM, 10% FBS, 5% CO2, 37° C. 24-well culture plates were used for the culture. The cell count was adjusted to 5×10^4 cells/well. Active vitamin D3 (10^−8M) was added to the culture system. On day 3, 7 and 10 of the culture, cells were fixed with 4% paraformaldehyde and stained with tartarate-resistant acid phosphatase (TRAP staining) under acidic conditions (pH 5.0). The number of multinucleated cells stained with red (osteoclasts) was measured. Similar measurement was performed with addition of olmesartan at concentrations of 10^−8, 10^−7 and 10^−6M. With respect to TRAP positive cells (generally, containing 1 to 100 nuclei in one cell), they were divided into three groups depending on the degree of fusion: small cells (containing 1 to 2 nuclei), medium cells (containing 3 to 9 nuclei) and large cells (containing 10 or more nuclei).

[4] = Blood pressure and heart rate in ovariectomized spontaneously hypertensive rats (Table A); assay type: in vivo, spontaneously hypertensive rats (SHR); conditions: average value; for Blood Pressure (diastolic): ovariectomy group 94.6667; for Blood Pressure (average): ovariectomy group 107; for Blood Pressure (systolic): ovariectomy group 131.667
Experimental: as §2
Although administration of olmesartan brought no changes in the length and weight of the bone, concentration dependent decrease was recognized in TRAP activity in the thigh bone (Ovariectomy+ARB0.5 group: 71.7±8.7 U/L; Ovariectomy+ARB 1 group: 66.1±3.6 U/L). Concentration dependent decrease in blood pressure was also recognized as a result of administration of olmesartan (Table A).

[5] = Bone density, bone length and weight in ovariectomized spontaneously hypertensive rats; assay type: in vivo, spontaneously hypertensive rats (SHR); conditions: one month after ovariectomy, ovariectomy group 0.1438±0.003445, non-treatment 0.1685±0.002684
Experimental: as §1, §2
Although administration of olmesartan brought no changes in the length and weight of the bone, concentration dependent decrease was recognized in TRAP activity in the thigh bone (Ovariectomy+ARB0.5 group: 71.7±8.7 U/L; Ovariectomy+ARB 1 group: 66.1±3.6 U/L). […]

[6] = AngII 1 μM plus test substance 1 μM added simultaneously, AngII group 1.045±0.129, control 0.133±0.0271
[7] = Ovariectomy + 1 mg/kg/day (n = 3)

Cc1cc(Cn2cnc3c2C[C@@H](C(=O)O)N(C(=O)C(c2ccccc2)c2ccccc2)C3)ccc1N(C)C [PD (123319), (S)-1-(4-[dimethylamino]-3-methylphenyl)methyl-5-(diphenylacetyl)-4,5,6,7-tetrahydro-1H-imidazo[4,5-c]pyridine-6-carboxylate]
sRANKL in culture supernatant [1, 6]: 0.747 ± 0.0855 pM

CCCc1nc(C(C)(C)O)c(C(=O)O)n1Cc1ccc(-c2ccccc2-c2nnn[nH]2)cc1 [olmesartan, 4-(1-hydroxy-1-methylethyl)-2-propyl-1-[4-[2-(tetrazole-5-yl)phenyl]phenyl]methylimidazole-5-carboxylic acid]
TRAP activity in the thigh bone ([2]; 0.5 mg/kg/day subcutaneously): 71.7±8.7 U/L
TRAP activity in the thigh bone ([2]; 1 mg/kg/day subcutaneously): 66.1±3.6 U/L
growth of coexisting mesenchymal cells ([3]; any of the groups (10^−8, 10^−7, 10^−6 M)): no remarkable change
TRAP positive cells, average cell count, medium cells (containing 3 to 9 nuclei) ([3]; day 10, olmesartan 10^−6 M, active vitamin D3 10^−8M, control 68.6): 50.2
TRAP positive cells, average cell count, large cells (containing 10 or more nuclei) ([3]; day 10, olmesartan 10^−6 M, active vitamin D3 10^−8M, control 80.6): 23.0
TRAP positive cells, average cell count, small cells (containing 1 to 2 nuclei) ([3]; day 10, olmesartan 10^−6 M, active vitamin D3 10^−8M, control 101.6): 192.8
fusion of mononuclear cells ([3]; olmesartan 10^−6 M, day 3, compared to control group): significantly reduced
change in TRAP positive cell count compared to the control group ([3]; olmesartan 10^−6 M, day 10): a significant reduction
change in TRAP positive cell count compared to the control group ([3]; olmesartan 10^−7 M, day 10): a reduction in TRAP positive cell count
change in TRAP positive cell count compared to the control group ([3]; olmesartan 10^−8 M): no remarkable change
osteoclasts contributing to bone resorption (medium and large cells) ([3]; olmesartan addition groups, control group 149.2, p<0.05): 73.2
total number of TRAP positive, multinucleated cells ([3]; olmesartan addition groups, control group 250.8, no statistically significant difference): 265.0
Blood Pressure (diastolic) ([4]; Ovariectomy + 0.5 mg/kg/day): 68.3333
Blood Pressure (average) ([4]; Ovariectomy + 0.5 mg/kg/day): 81.3333
Blood Pressure (systolic) ([4]; Ovariectomy + 0.5 mg/kg/day): 107
Blood Pressure (diastolic) [4, 7]: 45.8
Blood Pressure (average) [4, 7]: 56.25
Blood Pressure (systolic) [4, 7]: 70.8
bone density (dual-energy X-ray absorptiometry) ([5]; 0.5 mg/kg/day subcutaneously): 0.1527±0.003454 g/cm^2
bone density (dual-energy X-ray absorptiometry) ([5]; 1 mg/kg/day subcutaneously): 0.1539±0.004365 g/cm^2
sRANKL in culture supernatant [1, 6]: 0.0442 ± 0.0328 pM

AngII: angiotensin 2 (AngII) (Sigma), added at 1 μM to human osteoblast culture; increases RANKL expression (DRVYIHPF; Angiotensin-2; UniProt P01019 25-32, looked up)
sRANKL in culture supernatant ([1]; AngII 1 μM alone, non-addition control 0.133±0.0271): 1.045 ± 0.129 pM
